According to patent publication US11952593B2, “Detection and treatment of daughter number variations in cancer cells” (PharmacoGenetics Limited, priority 2020, dated 2024):

Legend:
HeLa cells = assay: Cell cytotoxicity assay (crystal violet), HeLa; assay type: cell-based, human; conditions: 24 hours, 50 μM wogonin, 20 μM 5-FU, absorbance 600 nm
Description: Cell cytotoxicity assay was carried out on 96 well plate, where cells were treated with neutral, acidic, alkaline pH and anti-cancer drug wogonin or 5-FU. After 24 hours, crystal violet (8% in methanol), and dye absorbed by live cells was extracted with sodium citrate (0.1 M) in 50% ethanol. Absorbance was read at 600 nm.
HepG2, HeLa and A549 cells were grown to a monolayer density of 1×10^3 per well in neutral growth medium overnight. There upon the cells were changed to various treatment media at neutral, acidic and alkaline pHs, neutral medium containing 50 μM wogonin and neutral medium containing 20 μM 5-FU, for 24 hours at 37° C. in humidified 5% CO2 atmosphere. Following the treatment, floating cells were removed, and the attached cells were stained with crystal violet (8% in methanol); the dye absorbed by the live cells was extracted with sodium citrate (0.1 M) in 50% ethanol [1 25], and quantitated by absorbance at 600 nm.

A549 cells = assay: Daughter-cell subgroups P1 through P8 in mitoses with DNV, A549; assay type: cell-based, human; conditions: A549, 24 hours, wogonin 50 μM, 5-FU 20 μM
Description: “Daughter Number Variation” is a process that occurs during mitosis, where more than two daughter cells are produced per mitotic division. It is a two-stage process, wherein cell divisions of mono-nucleate, bi-nucleate, tri-nucleate and tetra-nucleate mother cells at Stage 1 produce subgroups of single mono-nucleate cells (herein referred to as P1), and subgroups containing one bi-nucleate cell and two mono-nucleate cells (herein referred to as P2). Stage 1 is followed by Stage 2, during which time some of the daughter cells from Stage 1 fuse to produce multi-nucleate cell subgroups, where the different subgroups differ with respect to the number of constituent cells and their nucleate status (herein referred to as P3 through P8). All the subgroups from a single DNV mitosis stay close to one another to form a distinct cluster when the cell culture is not overly dense with cells.
P1 subgroup cells are daughter mono-nucleate cells resulting from mitoses with DNV that have not undergone any post-mitotic cell fusion. P2 subgroup daughter cells are clusters of one bi-nucleate cell and two mono-nucleate cells, which also have not undergone any post-mitotic cell fusion during DNV, whereas each of the multi-nucleated subgroups contains at least one cell that is generated from post-mitotic fusions between the Stage 1 cells. P3 through P8 are daughter cell subgroups, which result from cell fusions during DNV, and wherein each subgroup includes at least one multinucleate cell.
By way of example and not of limitation, there is at least one multinucleate cell with two nuclei in P3 and P5, one multinucleate cell with three nuclei in P4 and P6, one multinucleate cell with four nuclei in P7, and one multinucleate cell with five nuclei in P8, sharing the same cytoplasm. More specifically, P3 cell subgroups are clusters of one multinucleate cell with two nuclei and one mononucleate cell, P4 cell subgroups are one multinucleate cell with three nuclei, P5 cell subgroups are clusters of either two multinucleate cells with two nuclei or one multinucleate cell with two nuclei and one binucleate cell, P6 cell subgroups are clusters of one multinucleate cell with three nuclei and one mononucleate cell, P7 cell subgroups are one multinucleate cell with four nuclei, and P8 cell subgroups are one multinucleate cell with five nuclei. P1 through P8 cell subgroups are depicted in detail in FIG. 2.
The counts of P1 and P2 subgroups of cancer cells are then used to obtain their proportions based on the total number of cell subgroups P1 through P8 that resulted from mitotic DNVs during the predetermined period of time. The proportions are typically expressed as percentages. The proportion of P1 subgroup of cells is calculated as (number of P1 subgroups)+(total number of daughter cell subgroups)×100%, and the proportion of (P1 and P2) subgroup is calculated as (number of P1 subgroups+number of P2 subgroups)+(total number of daughter cell subgroups)×100%. This can also be expressed as (number of P1 subgroups)+(total number of P1 through P8 subgroups)×100%, or (number of P1 subgroups+number of P2 subgroups)+(total number of P1 through P8 subgroups)×100%, respectively.
To investigate DNVs, the human HepG2 hepatocellular carcinoma, HeLa cervical adenocarcinoma, and A549 lung adenocarcinoma cell lines, as well as the non-cancerous RPE1 line of hTRET-immortalized retina epithelial cells, were obtained from the American Type Culture Collection (ATCC, Manassas, Va., USA) and cultivated in Dulbecco's Modified Eagle Medium (DMEM) supplemented with 10% fetal bovine serum (Gemini Bio-Products, Sacramento. Calif.) under a humidified atmosphere of 5% C02 at 37° C. […]

Row | SMILES | Cell death as compared to neutral pH (HeLa cells) | Mitoses with DNV, number (A549 cells) | P1 + P2 subgroups, % of all P1 through P8 subgroups (A549 cells) | P1 + P2 subgroups, number (A549 cells) | P1 subgroups, % of all P1 through P8 subgroups (A549 cells) | P1 subgroups, number (A549 cells) | P2 subgroups, number (A549 cells) | P3 subgroups, % of all P1 through P8 subgroups (A549 cells) | P3 subgroups, number (A549 cells) | P4 subgroups, number (A549 cells) | P5 subgroups, number (A549 cells) | P6 subgroups, number (A549 cells) | P7 subgroups, number (A549 cells) | P8 subgroups, number (A549 cells) | P1 + P2 subgroups, % of all P1 through P8 subgroups (A549 cells; listed as wogonin) | P1 subgroups, % of all P1 through P8 subgroups (A549 cells; listed as wogonin)
1 | COc1c(O)cc(O)c2c(=O)cc(-c3ccccc3)oc12 [Wogonin, wogonin] | increased cell death | 7 | (57.1) % | 4 | (57.1) % | 4 | 0 | (42.8) % | 3 | 0 | 0 | 0 | 0 | 0 | 57.1% | 57.1%
2 | O=c1[nH]cc(F)c(=O)[nH]1 [5-FU, 5-flurouracil] | increased cell death | 3 | – | 3 | – | 3 | 0 | – | 0 | 0 | 0 | 0 | 0 | 0 | – | –
